Measurements as given in article PMC9920912, “In Vitro Binding Effects of the Ecdysone Receptor−Binding Domain and PonA in Plutella xylostella” (Molecules, 2023).
Blank lines part the entries; values can stand above or below the molecule they belong to.

Experiments:
[1] = biological target: T1, ecdysone receptor (PxGST−EcR) (Plutella xylostella, UniProt G5CV07); experiment: biochemical
T1 sequence (G5CV07 285-528): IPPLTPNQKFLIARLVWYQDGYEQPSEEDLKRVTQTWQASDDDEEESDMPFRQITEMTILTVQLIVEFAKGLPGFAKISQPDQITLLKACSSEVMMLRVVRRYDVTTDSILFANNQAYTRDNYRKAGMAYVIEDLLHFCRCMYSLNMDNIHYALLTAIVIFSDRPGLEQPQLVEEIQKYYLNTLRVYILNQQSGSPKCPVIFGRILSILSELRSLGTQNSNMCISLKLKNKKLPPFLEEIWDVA
T1 sequence (G5CV12 133-414 partner limits assumed): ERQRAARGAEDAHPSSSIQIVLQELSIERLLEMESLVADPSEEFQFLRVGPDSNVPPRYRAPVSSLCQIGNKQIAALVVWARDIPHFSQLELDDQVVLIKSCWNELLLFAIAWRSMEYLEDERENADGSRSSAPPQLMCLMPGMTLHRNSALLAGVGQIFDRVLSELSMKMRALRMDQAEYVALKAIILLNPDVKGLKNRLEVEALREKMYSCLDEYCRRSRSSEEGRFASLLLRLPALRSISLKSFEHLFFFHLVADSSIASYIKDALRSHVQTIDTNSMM

[2] = biological target: T1, ecdysone receptor (PxGST−EcR); experiment: competitive radioligand binding, displacement of [3H]PonA from purified EcR/USP dimer; set-up: truncated LBD-containing functional domain (D and E domains) fused to GST; with USP (PxGST−USP)
[3] = biological target: T2, PxGST-EcR (Plutella xylostella ecdysone receptor, truncated LBD-containing functional domain fused to … (Plutella xylostella, UniProt G5CV07)); experiment: TEM and zeta potential of co-incubated proteins, supported by enhanced [3H]PonA binding
T2 chain: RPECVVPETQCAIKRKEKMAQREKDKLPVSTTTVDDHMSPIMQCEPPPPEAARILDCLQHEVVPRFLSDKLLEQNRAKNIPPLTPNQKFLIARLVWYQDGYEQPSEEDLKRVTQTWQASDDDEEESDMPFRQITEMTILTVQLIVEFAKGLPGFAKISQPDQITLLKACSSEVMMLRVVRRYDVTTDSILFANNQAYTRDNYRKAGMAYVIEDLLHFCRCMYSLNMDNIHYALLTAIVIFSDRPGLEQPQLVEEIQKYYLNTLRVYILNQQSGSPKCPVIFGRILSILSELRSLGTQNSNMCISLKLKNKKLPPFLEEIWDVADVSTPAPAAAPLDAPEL

Molecule: CC(C)CC[C@@H](O)[C@](C)(O)[C@H]1CC[C@@]2(O)C3=CC(=O)[C@@H]4C[C@@H](O)[C@@H](O)C[C@]4(C)[C@H]3CC[C@]12C [PonA]
Kd [1]: 2.3 nM

Molecule: CCc1ccc(C(=O)NN(C(=O)c2cc(C)cc(C)c2)C(C)(C)C)cc1 [tebufenozide]
IC50 [2]: 80.6 nM

binding result [3]: binds
B1: PxGST-USP (Plutella xylostella ultraspiracle, truncated LBD-containing functional domain fused to glutathione-S-transferase) (protein)
chain: KREAVQEERQRAARGAEDAHPSSSIQIVLQELSIERLLEMESLVADPSEEFQFLRVGPDSNVPPRYRAPVSSLCQIGNKQIAALVVWARDIPHFSQLELDDQVVLIKSCWNELLLFAIAWRSMEYLEDERENADGSRSSAPPQLMCLMPGMTLHRNSALLAGVGQIFDRVLSELSMKMRALRMDQAEYVALKAIILLNPDVKGLKNRLEVEALREKMYSCLDEYCRRSRSSEEGRFASLLLRLPALRSISLKSFEHLFFFHLVADSSIASYIKDALRSHVQTIDTNSMM
